Data: PMC4527713, “An IPTG Inducible Conditional Expression System for Mycobacteria” (PLoS ONE, 2015)

Biological target: T1, RpoB (β subunit of RNA polymerase) (Mycolicibacterium smegmatis, UniProt P60281)
T1 construct: with RNA polymerase (multimeric enzyme)
T1 sequence (P60281 1-1169): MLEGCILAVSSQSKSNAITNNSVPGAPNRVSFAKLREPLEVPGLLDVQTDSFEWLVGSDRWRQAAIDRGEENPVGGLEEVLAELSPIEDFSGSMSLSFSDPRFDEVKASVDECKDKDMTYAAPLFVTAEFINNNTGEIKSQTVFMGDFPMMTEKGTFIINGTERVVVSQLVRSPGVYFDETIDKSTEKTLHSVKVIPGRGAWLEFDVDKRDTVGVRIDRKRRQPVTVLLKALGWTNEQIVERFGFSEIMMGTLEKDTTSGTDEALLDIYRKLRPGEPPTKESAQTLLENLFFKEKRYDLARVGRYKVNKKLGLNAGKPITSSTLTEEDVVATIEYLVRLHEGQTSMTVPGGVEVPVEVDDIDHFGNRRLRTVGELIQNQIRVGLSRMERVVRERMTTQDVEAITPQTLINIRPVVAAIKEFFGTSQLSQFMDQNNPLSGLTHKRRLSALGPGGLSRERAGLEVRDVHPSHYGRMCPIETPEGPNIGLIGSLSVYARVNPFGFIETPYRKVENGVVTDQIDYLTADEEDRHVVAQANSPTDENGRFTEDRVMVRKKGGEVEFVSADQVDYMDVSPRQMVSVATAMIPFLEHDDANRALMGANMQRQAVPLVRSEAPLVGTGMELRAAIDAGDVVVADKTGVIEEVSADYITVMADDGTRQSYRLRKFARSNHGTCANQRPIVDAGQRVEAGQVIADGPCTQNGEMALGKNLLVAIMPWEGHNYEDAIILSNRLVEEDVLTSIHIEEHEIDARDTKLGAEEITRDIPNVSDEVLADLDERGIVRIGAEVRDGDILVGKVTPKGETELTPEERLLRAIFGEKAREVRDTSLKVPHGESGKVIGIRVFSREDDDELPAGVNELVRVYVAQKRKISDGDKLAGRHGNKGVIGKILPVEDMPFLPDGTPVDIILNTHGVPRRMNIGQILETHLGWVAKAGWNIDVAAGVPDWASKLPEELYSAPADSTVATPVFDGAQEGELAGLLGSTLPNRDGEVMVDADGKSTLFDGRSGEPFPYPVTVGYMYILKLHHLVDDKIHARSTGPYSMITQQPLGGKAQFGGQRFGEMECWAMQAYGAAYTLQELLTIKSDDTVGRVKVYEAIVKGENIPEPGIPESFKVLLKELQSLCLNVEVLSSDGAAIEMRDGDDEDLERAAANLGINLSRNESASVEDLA
Assay: MIC shift in rpoB knockdown strain ([…]; no shift in inhA knockdown); also reference inhibitor in the screens, IC50 not given
Type: cell-based

CO[C@H]1/C=C/O[C@@]2(C)Oc3c(C)c(O)c4c(O)c(c(/C=N/N5CCN(C)CC5)c(O)c4c3C2=O)NC(=O)/C(C)=C\C=C\[C@H](C)[C@H](O)[C@@H](C)[C@@H](O)[C@@H](C)[C@H](OC(C)=O)[C@@H]1C [rifampicin]
MIC shift in rpoB knockdown strain (8 to 0.5 μg/ml; no shift in inhA knockdown);: modulation in MIC of rifampicin and isoniazid are due to the reduction in the respective target protein levels
